In ChEMBL document CHEMBL4364293, “Design, Synthesis, and Structure-Activity Relationship of 7-Propanamide Benzoxaboroles as Potent Anticancer Agents” (J Med Chem, 2019):
Calls of active or inactive are those of the source. The rule behind the calls is not given here.

Tests used:
SK-OV-3 [1] = assay: Antiproliferative activity against human SKOV3 cells after 72 hrs by MTT assay; format: functional, cell-based; details: SK-OV-3, 72 h
MDA-MB-231 = assay: Antiproliferative activity against human MDA-MB-231 cells after 72 hrs by MTT assay; format: functional, cell-based; details: MDA-MB-231, 72 h
HCT-116 = assay: Antiproliferative activity against human HCT116 cells after 72 hrs by MTT assay; format: functional, cell-based; details: HCT-116, 72 h
WI-38 = assay: Cytotoxicity against human WI38 cells after 72 hrs by MTT assay; format: cell-based; details: WI-38, 72 h
[2] = Selectivity ratio, ratio of IC50 for human WI38 cells to IC50 for human SKOV3 cells; format: toxicity; details: WI38 cells versus SKOV3 cells, read-out: Ratio IC50
[3] = Oral bioavailability in Sprague-Dawley rat at 10 mg/kg by non-compartmental analysis; format: ADME, organism-based; details: in vivo
[4] = Apparent permeability across apical to basolateral side in human Caco2 cells; format: ADME, cell-based; details: Caco-2
[5] = AUC infinity in Sprague-Dawley rat at 10 mg/kg, po by non-compartmental analysis; format: ADME, organism-based; design: dose 10 mg/kg, time infinity, route oral; details: in vivo
[6] = Volume of distribution at steady state in Sprague-Dawley rat at 2 mg/kg, iv by non-compartmental analysis; format: ADME, organism-based; details: in vivo, read-out: Vdss
[7] = Apparent permeability across basolateral to apical side in human Caco2 cells; format: ADME, cell-based; details: Caco-2
[8] = Efflux ratio of apparent permeability from basolateral to apical over apical to basolateral side in human Caco2 cells; format: ADME, cell-based; details: Caco-2
[9] = Tmax in Sprague-Dawley rat at 10 mg/kg, po by non-compartmental analysis; format: ADME, organism-based; details: in vivo
[10] = Cmax in Sprague-Dawley rat at 10 mg/kg, po by non-compartmental analysis; format: ADME, organism-based; design: dose 10 mg/kg, route oral; details: in vivo
[11] = AUC infinity in Sprague-Dawley rat at 2 mg/kg, iv by non-compartmental analysis; format: ADME, organism-based; design: dose 2 mg/kg, time infinity, route intravenous; details: in vivo
[12] = Clearance in Sprague-Dawley rat at 2 mg/kg, iv by non-compartmental analysis; format: ADME, organism-based; details: in vivo
[13] = Half-life in Sprague-Dawley rat at 2 mg/kg, iv by non-compartmental analysis; format: ADME, organism-based; details: in vivo
[14] = Half-life in Sprague-Dawley rat at 10 mg/kg, po by non-compartmental analysis; format: ADME, organism-based; details: in vivo
SK-OV-3 [15] = assay: Induction of apoptosis in human SKOV3 cells assessed as viable cells at 1 uM after 48 hrs by Annexin V-FITC/propidium iodide staining based FACS analysis (reference value: 91%); format: functional; details: SK-OV-3, 48 h, read-out: Activity
SK-OV-3 [16] = assay: Induction of apoptosis in human SKOV3 cells assessed as early apoptotic cells at 1 uM after 48 hrs by Annexin V-FITC/propidium iodide staining based FACS analysis (reference value: 1.95%); format: functional
SK-OV-3 [17] = assay: Induction of apoptosis in human SKOV3 cells assessed as late apoptotic cells at 1 uM after 48 hrs by Annexin V-FITC/propidium iodide staining based FACS analysis (reference value: 5.97%); format: functional
SK-OV-3 [18] = assay: Induction of apoptosis in human SKOV3 cells assessed as necrotic cells at 1 uM after 48 hrs by Annexin V-FITC/propidium iodide staining based FACS analysis (reference value: 1.06%); format: functional
SK-OV-3 [19] = assay: Induction of apoptosis in human SKOV3 cells assessed as viable cells at 3 uM after 48 hrs by Annexin V-FITC/propidium iodide staining based FACS analysis (reference value: 91%); format: functional; details: SK-OV-3, 48 h, read-out: Activity
SK-OV-3 [20] = assay: Induction of apoptosis in human SKOV3 cells assessed as early apoptotic cells at 3 uM after 48 hrs by Annexin V-FITC/propidium iodide staining based FACS analysis (reference value: 1.95%); format: functional
SK-OV-3 [21] = assay: Induction of apoptosis in human SKOV3 cells assessed as late apoptotic cells at 3 uM after 48 hrs by Annexin V-FITC/propidium iodide staining based FACS analysis (reference value: 5.97%); format: functional
SK-OV-3 [22] = assay: Induction of apoptosis in human SKOV3 cells assessed as necrotic cells at 3 uM after 48 hrs by Annexin V-FITC/propidium iodide staining based FACS analysis (reference value: 1.06%); format: functional
SK-OV-3 [23] = assay: Induction of apoptosis in human SKOV3 cells assessed as viable cells at 10 uM after 48 hrs by Annexin V-FITC/propidium iodide staining based FACS analysis (reference value: 91%); format: functional; details: SK-OV-3, 48 h, read-out: Activity
SK-OV-3 [24] = assay: Induction of apoptosis in human SKOV3 cells assessed as early apoptotic cells at 10 uM after 48 hrs by Annexin V-FITC/propidium iodide staining based FACS analysis (reference value: 1.95%); format: functional
SK-OV-3 [25] = assay: Induction of apoptosis in human SKOV3 cells assessed as late apoptotic cells at 10 uM after 48 hrs by Annexin V-FITC/propidium iodide staining based FACS analysis (reference value: 5.97%); format: functional
SK-OV-3 [26] = assay: Induction of apoptosis in human SKOV3 cells assessed as necrotic cells at 10 uM after 48 hrs by Annexin V-FITC/propidium iodide staining based FACS analysis (reference value: 1.06%); format: functional
SK-OV-3 [27] = assay: Induction of apoptosis in human SKOV3 cells after 48 hrs by Annexin V-FITC/propidium iodide staining based FACS analysis (reference value: 1.06%); format: functional, cell-based
NCI-H460 [28] = assay: Induction of apoptosis in human NCI-H460 cells assessed as increase in cleaved PARP expression at low concentration after 48 hrs by Western blot analysis; format: functional, cell-based
NCI-H460 [29] = assay: Induction of apoptosis in human NCI-H460 cells assessed as increase in cleaved caspase-3 expression at low concentration after 48 hrs by Western blot analysis; format: functional, cell-based
NCI-H460 [30] = assay: Induction of apoptosis in human NCI-H460 cells assessed as increase in cleaved caspase-9 expression at low concentration after 48 hrs by Western blot analysis; format: functional, cell-based
SK-OV-3 [31] = assay: Inhibition of colony formation in human SKOV3 cells at 0.0625 to 1 uM supplemented with fresh medium containing compound every 72 hrs for 2 weeks by crystal violet staining based assay; format: functional, cell-based
SW480 [32] = assay: Antitumor activity against human SW480 cells xenografted in ip dosed BALB/c mouse assessed as reduction in tumor volume administered once daily for 33 days and measured every 3 days during compound dosing; format: functional, organism-based
SW480 [33] = assay: Antitumor activity against human SW480 cells xenografted in ip dosed BALB/c mouse assessed as reduction in tumor weight administered once daily for 33 days and measured every 3 days during compound dosing; format: functional, organism-based
[34] = Toxicity in BALB/c mouse xenografted with human SW480 cells assessed as reduction in body weight at 2 to 10 mg/kg, ip administered once daily for 33 days and measured every 3 days during compound dosing; format: organism-based; details: in vivo
[35] = biological target: Leucine--tRNA ligase, cytoplasmic (Homo sapiens) (UniProt Q9P2J5); assay: Inhibition of human leucyl-tRNA synthetase
Chain of Leucine--tRNA ligase, cytoplasmic (Homo sapiens) (Q9P2J5 whole entry, looked up): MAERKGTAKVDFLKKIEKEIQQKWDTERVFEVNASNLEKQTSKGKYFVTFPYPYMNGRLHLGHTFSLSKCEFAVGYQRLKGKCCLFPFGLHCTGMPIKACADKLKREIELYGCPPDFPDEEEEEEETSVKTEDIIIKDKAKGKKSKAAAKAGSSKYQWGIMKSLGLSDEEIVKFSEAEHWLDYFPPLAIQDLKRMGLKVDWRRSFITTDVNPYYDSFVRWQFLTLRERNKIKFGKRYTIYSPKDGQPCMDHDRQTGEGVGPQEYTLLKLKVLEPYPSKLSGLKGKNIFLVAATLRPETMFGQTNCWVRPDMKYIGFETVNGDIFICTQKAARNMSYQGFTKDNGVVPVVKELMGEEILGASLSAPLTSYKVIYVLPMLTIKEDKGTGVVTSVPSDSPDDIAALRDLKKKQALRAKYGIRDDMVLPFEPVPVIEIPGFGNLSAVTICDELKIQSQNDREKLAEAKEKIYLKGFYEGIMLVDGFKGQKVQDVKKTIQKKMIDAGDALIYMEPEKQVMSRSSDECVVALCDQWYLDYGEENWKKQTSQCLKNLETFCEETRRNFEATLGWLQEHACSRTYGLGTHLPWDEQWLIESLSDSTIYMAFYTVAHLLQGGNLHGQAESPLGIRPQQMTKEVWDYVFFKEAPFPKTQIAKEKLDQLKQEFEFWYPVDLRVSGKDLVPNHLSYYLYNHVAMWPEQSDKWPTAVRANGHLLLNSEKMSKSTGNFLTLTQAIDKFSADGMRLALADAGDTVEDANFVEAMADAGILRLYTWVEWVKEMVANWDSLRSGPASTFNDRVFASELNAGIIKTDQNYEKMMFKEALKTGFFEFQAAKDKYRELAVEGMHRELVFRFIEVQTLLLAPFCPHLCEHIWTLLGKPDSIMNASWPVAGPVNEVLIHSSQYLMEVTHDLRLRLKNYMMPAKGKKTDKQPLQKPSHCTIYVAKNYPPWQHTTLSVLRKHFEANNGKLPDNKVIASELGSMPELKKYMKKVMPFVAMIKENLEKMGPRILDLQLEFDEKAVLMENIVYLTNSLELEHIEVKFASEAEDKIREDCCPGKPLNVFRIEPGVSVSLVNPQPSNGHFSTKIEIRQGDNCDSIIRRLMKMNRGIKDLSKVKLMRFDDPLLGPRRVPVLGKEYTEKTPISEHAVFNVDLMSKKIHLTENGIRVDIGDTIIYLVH

SMILES	IC50 (SK-OV-3 [1])	IC50 (MDA-MB-231)	IC50 (HCT-116)	IC50 (WI-38)	selectivity ratio [2]	bioavailability [3]	Papp A→B [4]	AUC(0-inf) [5]	Vd [6]	Papp B→A [7]	efflux ratio [8]	Tmax [9]	Cmax [10]	AUC(0-inf) [11]	clearance [12]	half-life [13]	half-life [14]	Activity (SW480 [32])	Activity (SW480 [33])	Activity [34]	other results
O=C(CCc1cccc2c1B(O)OC2)Nc1ccccc1	200 nM	230 nM	350 nM	30000 nM	150																
COc1cccc(-c2cccc(NC(=O)CCc3cccc4c3B(O)OC4)c2)c1	33 nM	37 nM	260 nM	3200 nM	100	19.5%	19.5 ×10⁻⁶ cm/s	547 ng·h/mL	7.63 L/kg	26.5 ×10⁻⁶ cm/s	1.36	0.2 h	434 ng/mL	551 ng·h/mL	62.5 mL/min/kg	1.4 h	2.2 h	Dose-dependent effect	Dose-dependent effect	Non-Toxic	viability at 1 µM (SK-OV-3 [15]): 71%; Activity (SK-OV-3 [16]): 12.8%; Activity (SK-OV-3 [17]): 15.4%; Activity (SK-OV-3 [18]): 0.808%; viability at 3 µM (SK-OV-3 [19]): 67.8%; Activity (SK-OV-3 [20]): 14.5%; Activity (SK-OV-3 [21]): 17.1%; Activity (SK-OV-3 [22]): 0.593%; viability at 10 µM (SK-OV-3 [23]): 48.1%; Activity (SK-OV-3 [24]): 20.6%; Activity (SK-OV-3 [25]): 30.7%; Activity (SK-OV-3 [26]): 0.505%; Activity (SK-OV-3 [27]): Dose-dependent effect; Activity (NCI-H460 [28]): Active; Activity (NCI-H460 [29]): Active; Activity (NCI-H460 [30]): Active; inhibition (SK-OV-3 [31]): Active; inhibition [35]: inactive
O=C(CCc1cccc2c1B(O)OC2)Nc1cccc(-c2ccc(F)cc2)c1	93 nM	250 nM	550 nM	4100 nM	44																
CC(=O)c1ccc(-c2cccc(NC(=O)CCc3cccc4c3B(O)OC4)c2)cc1	21 nM	56 nM	110 nM	3700 nM	180	4.6%	3.95 ×10⁻⁶ cm/s	459 ng·h/mL	0.882 L/kg	2.23 ×10⁻⁶ cm/s	0.56	0.25 h	373 ng/mL	1920 ng·h/mL	17.5 mL/min/kg	0.6 h	2 h	Dose-dependent effect	Dose-dependent effect	Non-Toxic	inhibition [35]: inactive
CC(=O)c1ccc(-c2cccc(NC(=O)CCc3ccccc3)c2)cc1	3200 nM	2700 nM	4000 nM	13000 nM																	
COc1cc(OC)cc(-c2cccc(NC(=O)CCc3ccc4c(c3)B(O)OC4)c2)c1	29000 nM	21000 nM	3700 nM	> 100000 nM																	
